PubChem BioAssay (NCI)
Where “and” joins values, the source holds several entries; their conditions need not be identical. Equal values may be shown once.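 Results reflect a 48-hour exposure of cells in 96-well plates to compound at five concentrations. GI50 is the concentration that inhibits growth by half. Definition used: TGI = concentration required for complete inhibition of growth.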

How the values were obtained:
Assay in all cases: NCI tumour cell line growth inhibition, 48 h
[1] = system: KM20L2 colon
[2] = system: COLO 205 colon
[3] = system: A498 renal
[4] = system: DLD-1 colon
[5] = system: SR leukemia
[6] = system: SK-MEL-5 melanoma
[7] = system: CAKI-1 renal
[8] = system: OVCAR-5 ovarian
[9] = system: MDA-MB-231 breast
[10] = system: NCI/ADR-RES ovarian
[11] = system: HCC-2998 colon
[12] = system: HOP-92 NSCLC
[13] = system: SK-MEL-28 melanoma
[14] = system: NCI-H522 lung
[15] = system: P388 leukemia
[16] = system: SW-620 colon
[17] = system: HT29 colon
[18] = system: UACC-62 melanoma
[19] = system: BT-549 breast
[20] = system: MALME-3M melanoma
[21] = system: 786-0 renal
[22] = system: M14 melanoma
[23] = system: HCT-116 colon
[24] = system: LOX IMVI melanoma
[25] = system: HL-60(TB) leukemia
[26] = system: OVCAR-4 ovarian
[27] = system: P388/ADR leukemia
[28] = system: DU-145 prostate
[29] = system: M19-MEL melanoma
[30] = system: IGROV1 ovarian
[31] = system: OVCAR-3 ovarian
[32] = system: U251 CNS
[33] = system: SNB-19 CNS
[34] = system: UACC-257 melanoma
[35] = system: K-562 leukemia
[36] = system: ACHN renal
[37] = system: RPMI-8226 leukemia
[38] = system: SF-268 CNS
[39] = system: MDA-N
[40] = system: EKVX NSCLC
[41] = system: OVCAR-8 ovarian
[42] = system: NCI-H226 lung
[43] = system: CCRF-CEM leukemia
[44] = system: RXF 393 renal
[45] = system: UO-31 renal
[46] = system: HOP-62 NSCLC
[47] = system: A549 NSCLC
[48] = system: MCF7 breast
[49] = system: MOLT-4 leukemia
[50] = system: KM12 colon
[51] = system: SN12K1 renal
[52] = system: MDA-MB-435
[53] = system: NCI-H460 lung
[54] = system: HS 578T breast

With `C1CN1c1nc(N2CC2)nc(N2CC2)n1` the TGI [1] was 47.7 µM, the TGI [2] was 32 µM and 41 µM and the TGI [3] was 25.2 µM. For the same compound, the TGI [4] was 78.8 µM, the TGI [5] was 19.6 µM and the GI50 [6] was 6.93 µM. The TGI [6] was 19.6 µM and 14 µM, the GI50 [7] was 1.87 µM and the TGI [7] was 24.8 µM and 27.5 µM. The GI50 [8] was 13.7 µM, the TGI [8] was 42 µM and 31.4 µM and the TGI [9] was 56.5 µM and 36.4 µM. The GI50 [10] was 3.48 µM, the TGI [10] was 38.6 µM and 12.8 µM and the GI50 [11] was 10.4 µM. For the same compound, the TGI [11] was 23.8 µM and 18.3 µM, the GI50 [12] was 8.04 µM and the TGI [12] was 35.9 µM and 17.7 µM. The TGI [13] was 40 µM, the TGI [14] was 21 µM and 12.2 µM and the TGI [15] was 17.3 µM. For the same compound, the GI50 [16] was 7.84 µM, the TGI [16] was 56.3 µM and > 54.9 µM and the TGI [17] was 64.8 µM and 35.4 µM. For the same compound, the GI50 [18] was 3.75 µM, the TGI [18] was 14.8 µM and 17 µM and the GI50 [19] was 8.42 µM. For the same compound, the TGI [19] was 45.1 µM and 19.1 µM, the GI50 [20] was 13.6 µM and the TGI [20] was 28.2 µM and 22.5 µM. The GI50 [21] was 1.83 µM, the TGI [21] was 17 µM and 16 µM and the GI50 [22] was 3.86 µM. The TGI [22] was 23.9 µM and 34.9 µM, the TGI [23] was 33.4 µM and 15.6 µM and the TGI [24] was 24.7 µM and 14.3 µM. The GI50 [25] was 0.195 µM, the TGI [25] was 24.5 µM and > 100 µM and the GI50 [26] was 13.8 µM. For the same compound, the TGI [26] was 36.5 µM and 20.3 µM, the TGI [27] was 16.7 µM and the GI50 [28] was 0.825 µM. For the same compound, the TGI [29] was 33 µM, the GI50 [30] was 11.1 µM and the TGI [30] was 33.4 µM and 21.8 µM. The TGI [31] was 41.7 µM and 25.8 µM, the GI50 [32] was 6.6 µM and the TGI [32] was 27.5 µM and > 50.1 µM. The GI50 [33] was 4.55 µM, the TGI [33] was 58.2 µM and > 51.3 µM and the GI50 [34] was 13.3 µM. For the same compound, the TGI [34] was 31.9 µM and 23 µM, the TGI [35] was 77.9 µM and the TGI [36] was 20.5 µM. For the same compound, the GI50 [37] was 15.9 µM, the TGI [37] was 72.6 µM and 29.7 µM and the GI50 [38] was 1.45 µM. The TGI [38] was 37.5 µM and 14.8 µM, the GI50 [39] was 15 µM and the TGI [39] was 42 µM and 33.3 µM. For the same compound, the GI50 [40] was 22.2 µM, the TGI [40] was 55.5 µM and 47.4 µM and the GI50 [41] was 5.11 µM. For the same compound, the TGI [41] was 38.8 µM and 16.2 µM, the GI50 [42] was 10.8 µM and the TGI [42] was 27.3 µM and 25.7 µM. The GI50 [43] was 0.195 µM, the GI50 [44] was 3.32 µM and the TGI [44] was 21.6 µM and 13.5 µM. For the same compound, the GI50 [45] was 1.28 µM, the TGI [45] was 23.4 µM and 3.68 µM and the GI50 [46] was 5.92 µM. The TGI [46] was 15.7 µM and 30.1 µM, the GI50 [47] was 4.99 µM and the TGI [47] was 31 µM and 28.3 µM. The GI50 [48] was 1.39 µM, the TGI [48] was 27.1 µM and 28.9 µM and the TGI [49] was 15.3 µM. The GI50 [50] was 13 µM, the TGI [50] was 42.3 µM and 35.9 µM and the TGI [51] was 26 µM. For the same compound, the GI50 [52] was 16.5 µM, the TGI [52] was 35.8 µM and 29.9 µM and the TGI [53] was 17.6 µM. The GI50 [54] was 23.4 µM and the TGI [54] was 87.5 µM and 52.8 µM.
With `C[C@@]1(CO)[C@H](O)CC[C@@]2(C)[C@H]1CC[C@H]1C[C@@H]3C[C@@]12CC[C@@]3(O)COC(=O)CN` the GI50 [1] was 61.2 µM and 28.7 µM and 129 µM, the TGI [1] was greater than 500 µM and the GI50 [2] was 82.4 µM. For the same compound, the TGI [2] was 39.7 µM and 193 µM, the GI50 [3] was 7.15 µM and 50.9 µM and 8.34 µM and the GI50 [4] was > 500 µM and 104 µM. For the same compound, the TGI [4] was greater than 500 µM, the GI50 [5] was 1.66 µM and the TGI [5] was 46.5 µM and 47.4 µM. The GI50 [6] was 41.9 µM and 6.06 µM, the TGI [6] was > 500 µM and 95.7 µM and the GI50 [7] was 2.36 µM. For the same compound, the TGI [7] was 78.7 µM, the GI50 [8] was 31.2 µM and 137 µM and 33.9 µM and the TGI [8] was > 93.2 µM and > 500 µM and 188 µM. For the same compound, the GI50 [9] was 45.4 µM, the TGI [9] was > 89.6 µM and 172 µM and the TGI [10] was 79.9 µM and > 500 µM and 163 µM. For the same compound, the GI50 [11] was > 500 µM and 72.6 µM, the GI50 [12] was 325 µM and the TGI [12] was 83.4 µM and > 500 µM and 137 µM. The GI50 [13] was 83.9 µM and 150 µM, the TGI [13] was > 500 µM and 252 µM and the GI50 [14] was 14.6 µM and 106 µM and 33.1 µM. The TGI [14] was > 82.2 µM and > 500 µM and 172 µM, the TGI [15] was 209 µM and the TGI [16] was 59.4 µM and > 500 µM and 220 µM. The GI50 [17] was 13.2 µM, the TGI [17] was 50.9 µM and 183 µM and the TGI [18] was > 500 µM and 131 µM. The GI50 [19] was 62.7 µM, the TGI [19] was greater than 241 µM and the TGI [20] was > 500 µM and 189 µM. The GI50 [21] was 1.12 µM, the TGI [21] was 60.8 µM and 108 µM and the GI50 [22] was 3.99 µM. For the same compound, the TGI [22] was > 79.1 µM and 112 µM, the GI50 [23] was 2.03 µM and 19.5 µM and 4.63 µM and the TGI [23] was 65.7 µM and > 500 µM and 155 µM. For the same compound, the GI50 [24] was 3.62 µM and 6.65 µM, the GI50 [25] was 2.11 µM and 0.38 µM and the GI50 [26] was > 500 µM and 111 µM. The TGI [26] was > 87.1 µM and > 500 µM and 182 µM, the TGI [27] was 126 µM and the GI50 [28] was 2.02 µM. The TGI [28] was > 59.8 µM and 75.5 µM, the TGI [29] was > 500 µM and 161 µM and the TGI [30] was > 500 µM and 181 µM. For the same compound, the GI50 [31] was > 500 µM and 105 µM, the TGI [31] was > 500 µM and 230 µM and the GI50 [32] was 4.35 µM and 7.51 µM. For the same compound, the TGI [32] was 66 µM and 50 µM and 178 µM, the TGI [33] was > 500 µM and 254 µM and the GI50 [34] was 133 µM and 99.4 µM. For the same compound, the TGI [34] was > 72.2 µM and > 500 µM and 239 µM, the GI50 [35] was 12.9 µM and the TGI [35] was 68.4 µM and > 5 µM and 231 µM. The GI50 [36] was 0.186 µM, the TGI [36] was 40.7 µM and 16.5 µM and the GI50 [37] was 16.1 µM and 3.35 µM. The TGI [37] was 78.2 µM and > 500 µM and 126 µM, the GI50 [38] was 65.6 µM and the TGI [38] was > 500 µM and 242 µM. The TGI [39] was > 86.9 µM and 180 µM, the GI50 [40] was 96.8 µM and 79.3 µM and the TGI [40] was 64.5 µM and > 500 µM and 171 µM. For the same compound, the GI50 [41] was 2.29 µM and 12.6 µM and 4.01 µM, the TGI [42] was > 500 µM and 238 µM and the GI50 [43] was 6.56 µM and 0.777 µM. The TGI [44] was 53.6 µM and > 500 µM and 163 µM, the GI50 [45] was 9.27 µM and the TGI [45] was > 80.6 µM and 201 µM. For the same compound, the GI50 [46] was 4.69 µM and 23.3 µM, the TGI [46] was > 78.7 µM and > 500 µM and 147 µM and the GI50 [47] was 1.81 µM and 15.7 µM and 3.1 µM. The TGI [47] was 76.1 µM and > 500 µM and 182 µM, the GI50 [48] was 3.17 µM and 21.2 µM and 3.87 µM and the GI50 [49] was 2.55 µM. The TGI [49] was 53.7 µM and 162 µM, the GI50 [50] was > 500 µM and 101 µM and the TGI [50] was 73.7 µM and > 500 µM and 238 µM. For the same compound, the GI50 [51] was 7.45 µM and 1.49 µM, the TGI [51] was greater than 500 µM and the GI50 [52] was 34.8 µM. For the same compound, the TGI [52] was > 77.6 µM and 109 µM, the GI50 [53] was 0.176 µM and 1.37 µM and 0.317 µM and the GI50 [54] was 110 µM. The TGI [54] was > 97.2 µM and 214 µM.
